# Test system: mice exposed to L-TBI
# Test: Mouse survival after lethal total body irradiation (L-TBI, 840cGy)
# Type: in vivo
# Details: MDV3100 24 h after L-TBI, alone
# Description: Description. Inhibition of sex steroids, which can be achieved in a reversible fashion pharmacologically, is a well-described strategy to promote lymphopoiesis in the BM and thymus^8,7,14,15. Although the most common method of sex steroid ablation clinically has been to use LHRH-agonists, it was described that an LHRH-Antagonist represents a more rational approach to promote immediate ablation of sex steroids for immune regeneration as it is far more rapid and abrogates the initial surge in sex steroids that LHRH-Agonist cause^16. Taken together with the impact of sex steroid inhibition on HSC function and the rapid regenerative effects of LHRH-Ant, it was hypothesized that LHRH-Ant could represent a rational non-cellular medical countermeasure for mitigating radiation injury and promoting hematopoietic regeneration when administered after hematopoietic insult. […] It was then tested if LHRH-Ant could mediate even greater mouse survival when administered multiple times.
# Methods. […] B6.SJL-Ptprca Pepcb/BoyJ (CD45.1) male mice (The Jackson Laboratory) were used between 7 and 12 weeks of age for transplant. Mice were irradiated with a Gammacell 40 Irradiator (Cs-137), with an average dose rate of 95 cGy/min, in a plexiglass mouse pie cage. To assess mouse survival after radiation, mice were monitored for up to 60 days after TBI. To adjust for differences in weight, identical mice were purchased from Jackson and cages randomly distributed over different groups. All animal protocols were approved by the Memorial Sloan Kettering Cancer Center Institutional Animal Care and Use Committee.
# Reagents: Degarelix (as acetate), a LHRH-Ant (Firmagon), was resuspended in sterile water for injection and administered S.C. to mice at a dose of 40 mg/kg. To evaluate the radiomitigative effect of LHRH-Ant on survival, mice were treated subcutaneously (S.C.) with a single injection of the LHRH-Ant or a saline control solution (PBS). Degarelix was purchased from the Memorial Sloan-Kettering Cancer Center Pharmacy. […] MDV3100 (selleckchem) was resuspended in a mixture of 45% PBS, 45% PEG and 10% DMSO and administered daily to mice by oral gavage at a dose of 10 mg/kg. 5-FU (InvivoGen) was administered to mice intraperitoneally (I.P.) at a dose of 150 mg/kg once every 7 days consecutively for 3 times as previously described^34,47,49.
compound,measurement,value
"CNC(=O)c1ccc(N2C(=S)N(c3ccc(C#N)c(C(F)(F)F)c3)C(=O)C2(C)C)cc1F [MDV3100, enzalutamide]",survival after L-TBI,did not mediate any survival benefit

# Reference: patent US12295973B2 (Fred Hutchinson Cancer Center, priority 2017, dated 2025)
